As a reminder, the melting point is the temperature, or range, at which the solid turns liquid. Broadly, the pIC50 is −log10 of the IC50, conventionally taken in molar units.

Data set [1] has as its system pancreatic (AsPC-1, BxPC-3, and Capan-2) and paraganglioma (PTJ64i and PTJ86i) cancer cell lines. The experiment in a line: One-point MTT screening at 75 µM in cancer cell lines. Format: cell-based. Conditions: one-point screening concentration of 75 μM for 72 h, five cancer cell lines. On the procedure:
(§1) Compounds 4a–p were submitted to a preliminary MTT assay at a one-point screening concentration of 75 μM for 72 h, including 2b as a reference compound (Figure 3). […] The presence of the electron-donating methoxy group decreased the activity of 2b, in both the para and meta positions. […] Specifically, these compounds, namely 4d, 4e, 4f, 4h, 4i, 4j, 4k, 4l, and 4m, were tested at concentrations of 3, 6, 12 and 24 µM for 72 h. In addition, the nine compounds, together with 2b, were tested against human fibroblasts HFF-1, in order to evaluate their selectivity against tumor cells, as compared to normal cells. Effects on cancer or normal cell viability were extrapolated from concentration–response curves and are expressed as IC50 values in Table 2.
(§2) Pancreatic cancer (AsPC-1, BxPC-3, and Capan-2), paraganglioma (PTJ86i and PTJ64i) and normal fibroblast (HFF-1) cell lines were cultured as previously described. All compounds were dissolved in DMSO (stock solutions) and then diluted in culture media to the final working concentrations. In this way, the solutions were completely clear and devoid of any undissolved material by microscopic inspection. […] The effects of compounds 4a-p and 2b on cancer cell viability were tested by an MTT assay (Sigma-Aldrich, St. Louis, MO, USA), as described by Florio et al.. In the initial screening all compounds were tested at a one-point screening concentration of 75 μM for 72 h (five replica wells per each condition). […] For combined treatments, the experimental design was made according to the Chou–Talalay method for drug combination studies, as previously described.
Figure 3 Screening of the effects of novel derivatives (4a–p) on the viability of pancreatic (AsPC-1, BxPC-3, and Capan-2) and paraganglioma (PTJ64i and PTJ86i) cancer cell lines. The lead compound 2b was included as a reference and the histograms show the relative decrease of cancer cell viability observed after treatments, as compared to 2b. Cell viability was assessed by an MTT assay using compounds at 75 µM for 72 h. Data shown are the means ± SD of duplicate experiments with quintuplicate determinations and are calculated as ratios relative to the reference compound 2b (dashed line).

For a further data set, the system named is PTJ86i. The experiment in a line: MTT cell viability assay, PTJ86i. Format: cell-based. Particulars: for Selectivity Index (SI): IC50 in normal (HFF-1) fibroblast cells/IC50 in PTJ86i; for pIC50: PTJ86i paraganglioma, MTT, 72 h. How it is done: as §1, §2
(§3) IC50 values were extrapolated from concentration–response curves and calculated using the CompuSyn software. […] Based on this analysis, a CI < 1 indicates synergism, a CI = 1 indicates additive effects and a CI > 1 indicates antagonism. SI values were calculated as previously described. Comparisons of mean values were performed using an unpaired Student’s t-test. For multiple comparisons, a one-way ANOVA followed by Dunnett’s test were employed. A p-value < 0.05 was estimated as statistically significant.
Background: Formazan colour is commonly taken as a measure of viable cells.

For another data set, the system named is PTJ64i. As to the kind of experiment: MTT cell viability assay, PTJ64i. Format: cell-based. Conditions: for Selectivity Index (SI): IC50 in normal (HFF-1) fibroblast cells/IC50 in PTJ64i; for pIC50: PTJ64i paraganglioma, MTT, 72 h. On the procedure: as §1, §2, §3
For the next data set, the system named is BxPC-3. As to the kind of experiment: MTT cell viability assay, BxPC-3. Format: cell-based. Conditions: for Inhibition Rate of Cell Viability / pIC50: 72 h; for pIC50: BxPC-3 pancreatic cancer, MTT; for Selectivity Index (SI): IC50 in normal (HFF-1) fibroblast cells/IC50 in BxPC-3. How it is done:
as §1, §2, §3

The next data set deals with HFF-1. As to the kind of experiment: MTT cell viability assay, normal fibroblasts HFF-1. Format: cell-based, human. Conditions: 72 h; for pIC50: HFF-1 normal cells, MTT.
The next data set concerns AsPC-1. As to the kind of experiment: MTT cell viability assay, AsPC-1. Format: cell-based. Conditions: for Inhibition Rate of Cell Viability / pIC50: 72 h; for pIC50: AsPC-1 pancreatic cancer, MTT; for Selectivity Index (SI): IC50 in normal (HFF-1) fibroblast cells/IC50 in AsPC-1. How it is done:
as §1, §2, §3

For the next data set, the system named is Capan-2. The experiment in a line: MTT cell viability assay, Capan-2. Format: cell-based. Conditions: for Inhibition Rate of Cell Viability / pIC50: 72 h; for pIC50: Capan-2 pancreatic cancer, MTT; for Selectivity Index (SI): IC50 in normal (HFF-1) fibroblast cells/IC50 in Capan-2. How it is done: as §1, §2, §3

pIC50: −log10 of the molar value.

Experimental for HFF-1: All compounds were dissolved in DMSO (stock solutions) and then diluted in culture media to the final working concentrations. […] The effects of compounds 4a-p and 2b on cancer cell viability were tested by an MTT assay (Sigma-Aldrich, St. Louis, MO, USA), as described by Florio et al. [17]. In the initial screening all compounds were tested at a one-point screening concentration of 75 μM for 72 h (five replica wells per each condition).
IC50 values were extrapolated from concentration–response curves and calculated using the CompuSyn software [45]. […] SI values were calculated as previously described [46]. Comparisons of mean values were performed using an unpaired Student’s t-test. For multiple comparisons, a one-way ANOVA followed by Dunnett’s test were employed. A p-value < 0.05 was estimated as statistically significant.

For the compound `COc1cccc(NC(=O)C(Sc2nc3cc(Cl)ccc3s2)c2ccccc2)c1` (centres unmarked) [4g, 2-[(5-Chlorobenzo[d]thiazol-2-yl)thio]-N-(3-methoxyphenyl)-2-phenylacetamide], the melting point was in the range of 160 to 162 °C. In addition, in data set [1], the “effect on cancer cell viability, potency compared with 2b” value (“effect … compared with 2b” for short) is listed as “exception”.

`O=C(Nc1cc([N+](=O)[O-])ccc1Br)C(Sc1nc2cc(Cl)ccc2s1)c1ccccc1` (centres unmarked) [4n, N-(2-Bromo-5-nitrophenyl)-2-[(5-chlorobenzo[d]thiazol-2-yl)thio]-2-phenyl Acetamide]: the “effect … compared with 2b” value in data set [1] is given as “exception”.

As to `CC(=O)Nc1cccc(NC(=O)C(Sc2nc3cc(Cl)ccc3s2)c2ccccc2)c1` (centres unmarked) [4l, N-(3-Acetamidophenyl)-2-[(5-chlorobenzo[d]thiazol-2-yl)thio]-2-phenylacetamide], the “Selectivity Index (SI)” value with PTJ86i was found to be 3.37; with PTJ64i, 6.62; in the data set on BxPC-3 it was 4.91; with AsPC-1 it was 4.54; with Capan-2, 1.99. Moreover, the pIC50 in the data set with PTJ86i was 4.70; with PTJ64i it was 4.99; in the data set on BxPC-3 (Homo sapiens) it was 4.86; in the data set with HFF-1 (Homo sapiens) it was 4.17; with AsPC-1 (Homo sapiens, ASPC1), 4.83; in the data set on Capan-2 (Homo sapiens) it was 4.47. Further, the “Inhibition Rate of Cell Viability” value in the data set on BxPC-3 (BxPC-3, 4l 0.5 µM) worked out at 6.00%; in the data set on BxPC-3 (BxPC-3, 4l 5 µM), 9.54%; with BxPC-3 (BxPC-3, 4l 50 µM), 70.50%; in the data set with HFF-1 (HFF-1, 4l 0.5 µM), 0.00%; in the data set on HFF-1 (HFF-1, 4l 5 µM), 1.00%; with HFF-1 (HFF-1, 4l 50 µM), 17.69%. Besides, the “Inhibition Rate of Cell Viability” value in the data set on AsPC-1 (AsPC-1, 4l 0.5 µM) was 13.40%; in the data set on AsPC-1 (AsPC-1, 4l 5 µM), 18.87%; in the data set with AsPC-1 (AsPC-1, 4l 50 µM), 42.97%; in the data set with Capan-2 (Capan-2, 4l 0.5 µM), 9.34%; in the data set with Capan-2 (Capan-2, 4l 5 µM) it was 30.25%; with Capan-2 (Capan-2, 4l 50 µM) it was 43.30%. The “effect … compared with 2b” value in data set [1] is “greater antiproliferative activity than 2b”.

`O=C(Nc1ccc(Cl)c(Cl)c1)C(Sc1nc2cc(Cl)ccc2s1)c1ccccc1` (centres unmarked) [4m, 2-[(5-Chlorobenzo[d]thiazol-2-yl)thio]-N-(3,4-dichlorophenyl)-2-phenyl Acetamide]: the “Selectivity Index (SI)” value was found to be 0.52 in the data set with PTJ86i; 1.32 in the data set with PTJ64i; 1.05 in the data set on BxPC-3; 1.22 in the data set on AsPC-1; 0.77 in the data set on Capan-2. Besides, the pIC50 is 4.70 in the data set on PTJ86i; 5.11 in the data set with PTJ64i; 5.01 with BxPC-3; 4.99 in the data set with HFF-1; 5.07 in the data set with AsPC-1; 4.88 with Capan-2. The “effect … compared with 2b” value in data set [1] is on record as “greater antiproliferative activity than 2b”.

With `O=C(Nc1ccc(C(F)(F)F)cc1)C(Sc1nc2cc(Cl)ccc2s1)c1ccccc1` (centres unmarked) [4d, 2-[(5-Chlorobenzo[d]thiazol-2-yl)thio]-2-phenyl-N-[4-(trifluoromethyl)phenyl] Acetamide], the “Selectivity Index (SI)” value is 0.74 in the data set on PTJ86i; 1.36 in the data set on PTJ64i; 2.31 in the data set on BxPC-3; 1.20 in the data set with AsPC-1; 1.03 in the data set with Capan-2. Moreover, the pIC50 was 4.91 in the data set on PTJ86i; 5.17 in the data set on PTJ64i; 5.40 with BxPC-3; 5.03 with HFF-1; 5.12 in the data set on AsPC-1; 5.05 in the data set on Capan-2. Further, the “effect … compared with 2b” value in data set [1] is “greater antiproliferative activity than 2b”.

For `COc1ccc(NC(=O)C(Sc2nc3cc(Cl)ccc3s2)c2ccccc2)cc1` (centres unmarked) [4a, 2-[(5-Chlorobenzo[d]thiazol-2-yl)thio]-N-(4-methoxyphenyl)-2-phenylacetamide], the melting point was 190 °C (dec.).

For `O=C(Nc1cccc(Cl)c1)C(Sc1nc2cc(Cl)ccc2s1)c1ccccc1` (centres unmarked) [4h, 2-[(5-Chlorobenzo[d]thiazol-2-yl)thio]-N-(3-chlorophenyl)-2-phenylacetamide], the pIC50 in the data set with PTJ86i is 4.78; in the data set on PTJ64i, 5.14; with BxPC-3 (Homo sapiens), 4.92; with HFF-1 (Homo sapiens), 4.94; in the data set with AsPC-1 (Homo sapiens, ASPC1), 4.92; in the data set with Capan-2 (Homo sapiens), 4.75. In data set [1], the “effect … compared with 2b” value is listed as “greater antiproliferative activity than 2b”.

`O=C(Nc1ccc(Cl)cc1)C(Sc1nc2cc(Cl)ccc2s1)c1ccccc1` (centres unmarked) [4b, 2-[(5-Chlorobenzo[d]thiazol-2-yl)thio]-N-(4-chlorophenyl)-2-phenylacetamide]: the melting point lay within 178 to 180 °C.

Regarding `O=C(Nc1ccc(C(F)(F)F)cc1Br)C(Sc1nc2cc(Cl)ccc2s1)c1ccccc1` (centres unmarked) [4o, N-[2-Bromo-4-(trifluoromethyl)phenyl]-2-[(5-chlorobenzo[d]thiazol-2-yl)thio]-2-phenylacetamide], the melting point fell in the range of 179 to 180 °C. Moreover, in data set [1], the “effect … compared with 2b” value was “exception”.

Regarding `O=C(Nc1cc(C(F)(F)F)ccc1Br)C(Sc1nc2cc(Cl)ccc2s1)c1ccccc1` (centres unmarked) [4p, N-[2-Bromo-5-(trifluoromethyl)phenyl]-2-[(5-chlorobenzo[d]thiazol-2-yl)thio]-2-phenylacetamide], the melting point lay within 157 to 159 °C. In data set [1], the “effect … compared with 2b” value is “exception”.

For the compound `O=C(Nc1cccc(C(F)(F)F)c1)C(Sc1nc2cc(Cl)ccc2s1)c1ccccc1` (centres unmarked) [4j, 2-[(5-Chlorobenzo[d]thiazol-2-yl)thio]-2-phenyl-N-[3-(trifluoromethyl)phenyl]acetamide], the pIC50 in the data set on PTJ86i was 4.76; with PTJ64i, 4.95; in the data set on BxPC-3 (Homo sapiens) it was 4.86; with HFF-1 (Homo sapiens) it was 4.74; in the data set with AsPC-1 (Homo sapiens, ASPC1) it was 5.02; in the data set on Capan-2 (Homo sapiens), 4.62. Besides, the “effect … compared with 2b” value in data set [1] was “greater antiproliferative activity than 2b”.

As for `Nc1ccn([C@@H]2O[C@H](CO)[C@@H](O)C2(F)F)c(=O)n1` [GEM, gemcitabine, reference compound], the “Inhibition Rate of Cell Viability” value in the data set on BxPC-3 (BxPC-3, GEM 0.1 µM) is 65.02%; in the data set with BxPC-3 (BxPC-3, GEM 1 µM), 64.65%; in the data set on BxPC-3 (BxPC-3, GEM 10 µM) it was 62.50%; with AsPC-1 (AsPC-1, GEM 0.1 µM), 54.21%; with AsPC-1 (AsPC-1, GEM 1 µM) it was 63.25%; in the data set on AsPC-1 (AsPC-1, GEM 10 µM), 64.63%. For the same compound, the “Inhibition Rate of Cell Viability” value in the data set with Capan-2 (Capan-2, GEM 0.1 µM) was determined as 26.87%; in the data set on Capan-2 (Capan-2, GEM 1 µM), 27.22%; in the data set on Capan-2 (Capan-2, GEM 10 µM), 38.65%.
